Consider four compounds from patent publication US20040029167A1, “Inducible COMT_II promoter, chimeric gene containing same and plants transformed therewith” (priority 1999, published 2004).

Each structure is given as a SMILES string.

The experiment deals with COMT II (−1215 to +24)/GUS. The experiment can be described thus: Induction of GUS activity in COMT II (−1215 to +24)/GUS transgenic plants by elicitors and chemical products. The experiment is classed as in vivo, Nicotiana tabacum cv. Samsun NN. As to conditions: for GUS Activity: leaves 16 h after infiltration, SA 1 mM, INA 1 mM, chitins 100 μg/ml, glucans 200 μg/ml, pectins 200 μg/ml; for Induction %: nontreated control C = 100, 16 h after infiltration, concentrations as for GUS Activity column. The procedure:
The transgenic plants containing the construct COMT II (−1215 to +24)/GUS were treated with various chemical products, regulators of defense reactions, with methyl-2,6-dichloroisonicotinic (INA) and salicylic acid (SA), with fungal elicitors such as glucans or fragments of chitin and an elicitor of plant origin, such as pectin. The GUS activity is expressed in pmol MU/min.mg. The control (C) corresponds to the basal GUS activity in the nontreated transformed plants.
The induction of the 1239 bp promoter was studied during injury or after treatment with methyl jasmonate (molecule which plays a role in defense response signaling during injury) or with benzothiadiazole (BTH) (chemical SAR-inducer). The GUS activity is measured 16 h after treatment.
The COMT II and GUS activities were assayed on 100 mg of tissues. The tissue is homogenized in a 100 mM sodium phosphate buffer at pH 7.5 containing 10 mM of DTT, after addition of polyclar AT (Serva) and of quartz. The crude extracts are clarified by centrifugation and by filtration on glass wool. The GUS and COMT II activities are measured on the same crude extracts. For measuring the COMT II activity, an aliquot of the protein extract is added to 1 ml of phosphate buffer comprising 100 μM of catechol and 50 μM of tritiated S-adenosyl-L-methionine (1.5×10^5 cpm/ml) and incubated for 3 hours at 37° C. The reaction is stopped by adding 100 μl of 9M sulfuric acid. The radioactive reaction product, […], is extracted with 5 ml of an NA scintillation solution (Beckman) and the radioactivity is counted on a Beckman LS 9000 machine. The fluorimetric measurement of the GUS activity is performed on the same samples, according to the procedure of Jefferson et al. (1987). The protein content is determined by the Bradford method (1976) using Biorad reagents.
Treatment with an elicitor: Solutions are infiltrated, using a syringe equipped with a fine needle, in the mesophyl of the leaves. The infiltrated regions are delimited with a felt-tip marker. The infiltrated regions are harvested 16 hours after treatment. The leaves are treated with a solution of β-megaspermine, a protein elicitor purified from a Phytophthora megasperma culture medium (Kauffmann et al., 1993), or of oligosaccharides such as chitin oligomers (100 μg/ml), glucan fragments (200 μg/ml) and pectin fragments (200 μg/ml). The control plants are infiltrated with water.
Chemical treatments: (1) Solutions of SA (1 mM) or of INA (50 mM) are infiltrated into tobacco leaves using.the protocol described for the treatment with elicitors. (2) Under identical culture conditions, solutions of SA (10 mM), INA (1 mM) or BTH (50 mM) are sprayed onto the transgenic plants. The tissues are recovered 16 hours after treatment. Plants treated with water are used as a control. (3) Seven-week-old plants or leaves of vitroplants kept alive on water are transferred into transparent, hermetically sealed dishes and subjected to an atmosphere of 3.5 mM of MeJa (Serva). The tissues are removed at various times after treatment. The control plants are placed in the same dishes without MeJa.

Where [1] appears, read: 1239 bp promoter, 16 h after treatment.

On to `c1ccc2snnc2c1` [BTH, benzothiadiazole], for which the induction factors under setting [1] came to 2.5. Further, for the setting “1239 bp promoter, 16 h after treatment, nontreated plants C = 100”, the “Induction of the GUS activity %” value worked out at 250%.

`COC(=O)c1cc(Cl)nc(Cl)c1` [INA, methyl-2,6-dichloroisonicotinic]: the “GUS Activity” value is recorded as 1,700 pmol MU/min.mg and the Induction % turned out to be 200%.

With `CC/C=C\CC1C(=O)CCC1CC(=O)OC` (stereo not shown) [Methyl jasmonate, methyl jasmonate], the induction factors under setting [1] was 14.5.

As for `O=C(O)c1ccccc1O` [SA, salicylic acid], the “GUS Activity” value is 1,200 pmol MU/min.mg and the Induction % is given as 200%.
